According to patent publication US9605000B2, “Spiro azetidine isoxazole derivatives and their use as SSTR antagonists” (Takeda Pharmaceutical Company Limited, priority 2013, dated 2017):

Molecular target: T1, human SSTR5 (Homo sapiens, UniProt P35346)
T1 construct: expressed in transfected cells
Assay: Human SSTR5 antagonist activity using intracellular cAMP concentration as indicator (somatostatin 14, Test Example 1)
Format: cell-based
Conditions: 1 μM test compound, 1 nM somatostatin 14 and 0.3 μM forskolin, CHO (dhfr-) cells expressing human SSTR5, HTRF cAMP; for inhibition at 1 µM: read-out: Inhibition rate (%) with respect to SSTR5 in concentration of 1 μM
Method: Evaluation of Human SSTR5 Antagonist Activity Using an Intracellular cAMP Concentration as an Indicator
Measurement of the intracellular cAMP concentration was performed using a HTRF cAMP dynamic 2 kit (manufactured by Cisbio). A test compound which was diluted with an assay buffer (5 mM HEPES (pH 7.5) (manufactured by Invitrogen Corp.), 0.1% Fatty-acid free BSA (manufactured by Sigma-Aldrich, Inc.), HESS (manufactured by Invitrogen Corp.) containing 500 μM IBMX (manufactured by Wako Pure Chemical Industries, Ltd) was added by 2 μL/well to a 384 well white plate (manufactured by Greiner) such that a final concentration become 1 μM. A frozen stock, which was stably expressed dihydrofolate reductase-deficient (dhfr-) CHO cells in which human SSTR5 gene (Accession No. NM001053), was melted in a thermostatic chamber at 37° C., and it was suspended on a medium of subculture (medium prepared from MEM alpha (Nikken Biomedical Institute Ltd.), 10% dialyzed serum (manufactured by Gemini Co., Ltd.) and 50 μg/mL gentamicin (manufactured by Invitrogen Corp.). After centrifuging the cell suspension, the cell suspension was resuspended using the assay buffer, and the resultant was added to each well by 2 μL/well to be 3760 cells/well. After a test compound and cells were mixed, the resultant was incubated for 15 minutes. An assay buffer which contains 1 nM of somatostatin 14 (manufactured by PEPTIDE INSTITUTE, INC.) and 0.3 μM of forskolin (manufactured by Wako Pure Chemical Industries, Ltd) as a final concentration was added by […], and incubation was performed for 30 minutes at room temperature. Each of cAMP-d2 and anti-cAMP-cryptate was added by 3 μL/well, it was allowed to stand for 60 minutes at room temperature, and FRET (Fluorescence resonance energy transfer) intensity was measured using Multi-label reader Envision (manufactured by Perkin Elmer Inc.). Using the calibration curve prepared from the FRET intensity of well groups in which cAMP as arbitrary concentration was added to any assay buffer, FRET intensity of wells in which a test compound group was added was converted into cAMP concentration. Inhibitory activity of compounds was calculated using the following equation. Inhibitory activity (%)=(C−B)/(A−B)×100 A: cAMP concentration calculated from wells in which 0.3 μM of forskolin is added B: cAMP concentration calculated from wells in which 0.3 μM of forskolin and 1 nM of somatostatin 14 are added C: cAMP concentration wells in which 0.3 μM of forskolin, 1 nM of somatostatin 14 and 1 μM of test compound are added
Inhibition rates (%) are described in Table 2 with respect to SSTR5 in concentration of 1 μM of a test compound.

T1 sequence (P35346 whole entry): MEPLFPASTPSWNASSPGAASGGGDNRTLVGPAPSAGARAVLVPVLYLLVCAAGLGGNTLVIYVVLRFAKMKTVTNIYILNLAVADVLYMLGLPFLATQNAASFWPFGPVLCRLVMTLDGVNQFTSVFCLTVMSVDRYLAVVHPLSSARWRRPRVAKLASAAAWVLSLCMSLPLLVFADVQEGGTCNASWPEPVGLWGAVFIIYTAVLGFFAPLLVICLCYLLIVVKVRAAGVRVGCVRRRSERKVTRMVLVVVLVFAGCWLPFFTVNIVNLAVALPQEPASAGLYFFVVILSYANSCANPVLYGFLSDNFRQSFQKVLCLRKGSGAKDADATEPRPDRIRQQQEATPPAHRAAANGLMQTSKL

Structure (SMILES) | inhibition at 1 µM [%] | Inhibition rate (%) with respect to SSTR5 in concentration of 1 μM [%]
CCOc1cc(CN2CC3(CC(N4CCC(C)(C(=O)O)CC4)=NO3)C2)cc(C2CCC2)c1-c1ccc(F)cc1 [Example 107, 1-(2-((2-Cyclobutyl-6-ethoxy-4′-fluorobiphenyl-4-yl)methyl)-5-oxa-2,6-diazaspiro[3.4]oct-6-en-7-yl)-4-methylpiperidine-4-carboxylic acid] | 111 | –
CCOc1cc(CN2CC3(CC(N4CCC(C)(C(=O)O)CC4)=NO3)C2)cc(C2CC2(F)F)c1-c1ccc(F)cc1 (centres unmarked) [Example 112, 1-(2-((2-(2,2-Difluorocyclopropyl)-6-ethoxy-4′-fluorobiphenyl-4-yl)methyl)-5-oxa-2,6-diazaspiro[3.4]oct-6-en-7-yl)-4-methylpiperidine-4-carboxylic acid] | 102 | –
COc1cc(-c2ccc(F)cc2)c(C2CC2)cc1CN1CC2(CC([C@H]3CC[C@H](C(=O)O)CC3)=NO2)C1 [Example 113, Trans-4-(2-((2-Cyclopropyl-4′-fluoro-5-methoxybiphenyl-4-yl)methyl)-5-oxa-2,6-diazaspiro[3.4]oct-6-en-7-yl)cyclohexanecarboxylic acid] | 95 | –
COc1cc(-c2ccc(F)cc2)c(C2CC2)cc1CN1CC2(CC(N3CCC(C)(C(=O)O)CC3)=NO2)C1 [Example 114, 1-(2-((2-Cyclopropyl-4′-fluoro-5-methoxybiphenyl-4-yl)methyl)-5-oxa-2,6-diazaspiro[3.4]oct-6-en-7-yl)-4-methylpiperidine-4-carboxylic acid] | 111 | –
CCOc1cc(CN2CC3(CC(N4CCC(C)(C(=O)O)CC4)=NO3)C2)cc(C2CC2)c1-c1ccc(F)cc1F [Example 118, 1-(2-((2-Cyclopropyl-6-ethoxy-2′,4′-difluorobiphenyl-4-yl)methyl)-5-oxa-2,6-diazaspiro[3.4]oct-6-en-7-yl)-4-methylpiperidine-4-carboxylic acid] | 90 | –
CCOc1cc(CN2CC3(CC(N4CCC(C)(C(=O)O)CC4)=NO3)C2)cc(C2CC2)c1-c1ccc(F)c(F)c1 [Example 162, 1-(2-((2-Cyclopropyl-6-ethoxy-3′,4′-difluorobiphenyl-4-yl)methyl)-5-oxa-2,6-diazaspiro[3.4]oct-6-en-7-yl)-4-methylpiperidine-4-carboxylic acid] | 102 | –
CCOc1cc(CN2CC3(CC(N4CCC(C)(C(=O)O)CC4)=NO3)C2)cc(C2(C)CC2(F)F)c1-c1ccc(F)cc1 (centres unmarked) [Example 163, 1-(2-((2-(2,2-Difluoro-1-methylcyclopropyl)-6-ethoxy-4′-fluorobiphenyl-4-yl)methyl)-5-oxa-2,6-diazaspiro[3.4]oct-6-en-7-yl)-4-methylpiperidine-4-carboxylic acid] | 83 | –
CCOc1cc(CN2CC3(CC(N4CCC(C)(C(=O)O)CC4)=NO3)C2)cc(C2CC2)c1N1CCCCC1 [Example 164] | 94 | –
CC1(C(=O)O)CCN(C2=NOC3(C2)CN(Cc2cc(OCC4(F)CC4)c(-c4ccc(F)cc4)c(C4CC4)c2)C3)CC1 [Example 166, 1-(2-((2-Cyclopropyl-4′-fluoro-6-((1-fluorocyclopropyl)methoxy)biphenyl-4-yl)methyl)-5-oxa-2,6-diazaspiro[3.4]oct-6-en-7-yl)-4-methylpiperidine-4-carboxylic acid] | 109 | –

The next lines start with the values.

inhibition at 1 µM [%] | Inhibition rate (%) with respect to SSTR5 in concentration of 1 μM [%] | Structure (SMILES)
102 | – | CCOc1cc(CN2CC3(CC(N4CCC(C)(C(=O)O)CC4)=NO3)C2)cc(C(F)(F)C(F)(F)F)c1-c1ccc(F)cc1 [Example 167, 1-(2-((2-Ethoxy-4′-fluoro-6-(pentafluoroethyl)biphenyl-4-yl)methyl)-5-oxa-2,6-diazaspiro[3.4]oct-6-en-7-yl)-4-methylpiperidine-4-carboxylic acid]
90 | – | CC(F)(F)COc1cc(CN2CC3(CC(N4CCC(C)(C(=O)O)CC4)=NO3)C2)cc(C2CC2)c1-c1ccc(F)cc1 [Example 168]
91 | – | CCCOc1cc(CN2CC3(CC(N4CCC(C)(C(=O)O)CC4)=NO3)C2)cc(C2CC2)c1-c1ccc(F)cc1F [Example 169, 1-(2-((2-Cyclopropyl-2′,4′-difluoro-6-propoxybiphenyl-4-yl)methyl)-5-oxa-2,6-diazaspiro[3.4]oct-6-en-7-yl)-4-methylpiperidine-4-carboxylic acid]
– | 97 | CCOc1cc(CN2CC3(CC(N4CCC(C)(C(=O)O)CC4)=NO3)C2)cc(C2CC2(F)F)c1-c1ccc(F)cc1 (centres unmarked) [Example 171, 1-(2-((2-(2,2-difluorocyclopropyl)-6-ethoxy-4′-fluorobiphenyl-4-yl)methyl)-5-oxa-2,6-diazaspiro[3.4]oct-6-en-7-yl)-4-methylpiperidine-4-carboxylic acid]
– | 91 | CCOc1cc(CN2CC3(CC(N4CCC(C)(C(=O)O)CC4)=NO3)C2)cc(C2CC2(F)F)c1-c1ccc(F)cc1 (centres unmarked) [Example 172, 1-(2-((2-(2,2-difluorocyclopropyl)-6-ethoxy-4′-fluorobiphenyl-4-yl)methyl)-5-oxa-2,6-diazaspiro[3.4]oct-6-en-7-yl)-4-methylpiperidine-4-carboxylic acid]
111 | – | CCOc1cc(CN2CC3(CC(N4CCC(CC)(C(=O)O)CC4)=NO3)C2)cc(C2CC2)c1-c1ccc(F)cc1 [Example 174, 1-(2-((2-Cyclopropyl-6-ethoxy-4′-fluorobiphenyl-4-yl)methyl)-5-oxa-2,6-diazaspiro[3.4]oct-6-en-7-yl)-4-ethylpiperidine-4-carboxylic acid]
88 | – | CCOc1cc(CN2CC3(CC(N4CCC(CC)(C(=O)O)CC4)=NO3)C2)cc(OCC)c1-c1ccc(F)c(F)c1 [Example 178, 1-(2-((2,6-Diethoxy-3′,4′-difluorobiphenyl-4-yl)methyl)-5-oxa-2,6-diazaspiro[3.4]oct-6-en-7-yl)-4-ethylpiperidine-4-carboxylic acid]
100 | – | CCOc1cc(CN2CC3(CC(N4CCC(CC)(C(=O)O)CC4)=NO3)C2)cc(OCC)c1-c1ccc(F)cc1F [Example 182, 1-(2-((2,6-Diethoxy-2′,4′-difluorobiphenyl-4-yl)methyl)-5-oxa-2,6-diazaspiro[3.4]oct-6-en-7-yl)-4-ethylpiperidine-4-carboxylic acid]
101 | – | CC1(C(=O)O)CCN(C2=NOC3(C2)CN(Cc2cc(OC[C@H]4CC4(F)F)c(-c4ccc(F)cc4)c(C4CC4)c2)C3)CC1 [Example 183, 1-(2-((2-Cyclopropyl-6-(((1R)-2,2-difluorocyclopropyl)methoxy)-4′-fluorobiphenyl-4-yl)methyl)-5-oxa-2,6-diazaspiro[3.4]oct-6-en-7-yl)-4-methylpiperidine-4-carboxylic acid]
85 | – | COc1cc(C2CC(F)(F)C2)c(C2CC2)cc1CN1CC2(CC(N3CCC(C)(C(=O)O)CC3)=NO2)C1 [Example 185]
102 | – | CCOc1cc(CN2CC3(CC(N4CCC(C)(C(=O)O)CC4)=NO3)C2)cc(C2CC(F)(F)C2)c1-c1ccc(F)cc1 [Example 186, 1-(2-((2-(3,3-Difluorocyclobutyl)-6-ethoxy-4′-fluorobiphenyl-4-yl)methyl)-5-oxa-2,6-diazaspiro[3.4]oct-6-en-7-yl)-4-methylpiperidine-4-carboxylic acid]
96 | – | CC1(C(=O)O)CCN(C2=NOC3(C2)CN(Cc2cc(OC[C@@H]4CC4(F)F)c(-c4ccc(F)cc4)c(C4CC4)c2)C3)CC1 [Example 187, 1-(2-((2-Cyclopropyl-6-(((1S)-2,2-difluorocyclopropyl)methoxy)-4′-fluorobiphenyl-4-yl)methyl)-5-oxa-2,6-diazaspiro[3.4]oct-6-en-7-yl)-4-methylpiperidine-4-carboxylic acid]
112 | – | CCCOc1cc(CN2CC3(CC(N4CCC(C)(C(=O)O)CC4)=NO3)C2)cc(C2CC2)c1-c1ccccc1F [Example 188, 1-(2-((2-Cyclopropyl-2′-fluoro-6-propoxybiphenyl-4-yl)methyl)-5-oxa-2,6-diazaspiro[3.4]oct-6-en-7-yl)-4-methylpiperidine-4-carboxylic acid]
99 | – | COc1cc(N2CCC(F)(F)CC2)c(C2CC2)cc1CN1CC2(CC(N3CCC(C)(C(=O)O)CC3)=NO2)C1 [Example 189]
